This is an account of results in patent US7201896B1, “IL6RIL6 chimera for the treatment of neurodegenerative diseases” (Yeda Research and Development Company Ltd., priority 1999, dated 2007).

Test [1] has as its system hippocampal organotypic slices. Nature of the test: NMDA-induced cell death in hippocampal organotypic slices, propidium iodide. To be noted: 0.1 ng/ml. The format is cell-based, rat. Here is the method: The cultures were prepared as previously described by Bahr et al. (Bahr 1995) with minor modifications. Hippocampi were dissected out from eight day old Wistar rats and 400 μm thick slices were laid down on a porous and transparent Millicell-CM membrane (Millipore) and cultured in 6 wells multiwell plates. Four slices were placed on each membrane. Culture medium consisted of 50% minimal essential medium (+25 mM HEPES, +4 mM NaHCO3+NaOH pH 7.2), 25% horse serum and 25% Hanks' solution, glucose (6.4 g/l), penicillin/streptomycin (10 ml/l), L-glutamine (2 mM). Cultures were kept in a 5% CO2 incubator set at a temperature of 37° C. for at least 3 weeks before being used. Medium was changed every week.
Hippocampal slices were exposed to IL6 or to the IL6 chimera at concentrations ranging […] for 15 min, thereafter NMDA 50 μM was added for additional 30 min. […] NMDA-induced cell death was evaluated either 1 or 3–7 days after the experimental injury by incubating cultures for 1 hour in fresh medium containing propidium iodide (PI 5 μl/ml). […] The emitted red fluorescence (marker of cell death) was examined using an inverted fluorescence microscope (Zeiss) associated with an intensified charged-coupled device camera. Quantification of total fluorescence was performed by an image analysis system (Image Pro Plus).

For test [2], the system named is rat cerebellar granule cells. As to the kind of experiment: Glutamate-induced neurotoxicity in primary cerebellar granule cells. The class given is cell-based. Particulars: 0.1 to 10 ng/ml; glutamate 50 μM. Here is the method:
Activation of glutamate ionotropic receptors represents the primary event in the neurotoxicity process triggered by excitatory amino acids. Primary cultures of new born rat cerebella neurons (which contain >97% neurons) were employed for studying the effects of the IL6 chimera on glutamate-induced neurotoxicity and compared to the effects of IL-6.
Primary cultures of cerebellar granule cells were prepared from 8 day-old Sprague-Dawley rat pups as previously described (Pizzi et al. 1993). Cells were plated onto poly-L-Lysine-coated dishes and cultured in basal Eagle's medium containing 10% heat-inactivated foetal bovine serum, glutamine (2 mM), gentamicin (50 μg/ml), and KCl (25 mM), at a density of 2.5×10^5 cells/cm^2. Cytosine Arabinoside (10 μM) was added to the cultures 18 h after seeding to prevent non neuronal cell proliferation. Experiments were carried out after culturing the neurons for 10 days.
Unless otherwise indicated, cultures were exposed for 15 min to 50 μM glutamate in a Mg^2+-free Locke's solution. IL6 or the IL6 chimera were added 5 min before glutamate treatment. Dishes were then returned to cultured conditioned medium at 37° C. in 95% air/5% CO2 and cell viability was measured 18–24 hours later.
Cell viability was evaluated 18 h later by intravital staining with fluorescein diaceate and propidium iodide mixture, as previously described (Pizzi et al. 1993). […]

Test [3] concerns dorsal root ganglia (DRG) explants, embryonic Schwann cells. As to the kind of experiment: Embryonic dorsal root ganglia (DRG) explant cultures: microscopy, scanning EM, anti-MBP staining. The class given is cell-based, mouse. To be noted: IL6RIL6 3 μg/ml, NGF 40 ng/ml. Here is the method:
In the spinal cord, the dorsal root comprises essentially sensory neurons, which form synapses in the dorsal root ganglia (DRG). During mouse embryogenesis (at day e14–e15), DRGs are a convenient source of neurons and of embryonic Schwann cells which have not yet differentiated into myelinating SC. Procedures to obtain explants of DRGs for in vitro cultures are described by Li (1998). The cultures were performed on glass coverslips placed in the wells of Costar plates, in medium F12/DMEM (Gibco). The coverslips were coated either with collagen or with poly-D-lysine, with essentially similar results. Cultures were either done in medium without growth factor or cytokine additions or in medium supplemented with nerve growth factor (NGF, 40 ng/ml), or in medium supplemented with IL6RIL6 chimeric recombinant proteins (3 μg/ml). The cultures were examined daily by light microscopy with an Olympus inverted microscope linked to a video-camera imaging system (Leica LIDA system). Part of the coverslips were fixed in paraformaldehyde and MBP proteins were labeled with monoclonal primary antibodies to myelin basic proteins and fluorescein-conjugated secondary antibody. Neuronal cell bodies and axons were stained with antibodies to neurofilament protein. Some of the coverslips were examined by scanning electron microscopy (EM).

Test [4] relates to Rat sciatic nerve Schwann cell lines cells with murine DRG neurons. As to the kind of experiment: Co-culture of DRG neuronal cells with fluorogold-labeled Schwann cells. The class given is cell-based. The text has this: By culturing murine DRG in the presence of DNA synthesis inhibitors arabinoseC (AraC) and fluorodeoxyuridine (FudR), neuronal cells can develop axons while glial cell proliferation is inhibited. These DRG cultures can be used as a source of neuronal cells with non-myelinated axons. Schwann cells are exogenously added to these cultures to study the interaction between neurons and Schwann cells.
Rat sciatic nerve Schwann cell lines cells were labeled with fluorogold, a label that penetrates the cell membrane lipid bi-layer and is maintained for an extensive period of time without affecting cell function. […] This system allows to study the various steps in the myelination process which are affected by the IL-6 chimera.

In the case of “IL-6: Interleukin-6, cytokine used as comparator”, in test [1] (after one day, NMDA 50 μM), the “neuronal cells protected from NMDA-induced cell death” value is “approximately 50%”. For the same substance, in test [1] (day 5), the “cells protected from NMDA-induced cell death” value was found to be 30%. The “protection from glutamate-induced neurotoxicity” value in test [2] is on record as “no protective effect”.
As for NGF: nerve growth factor, the “Staining with anti-MBP” value in test [3] was “little MBP-specific fluorescence”. For the same substance, in test [3] (after 2 to 5 days), the “Schwann cells along axons in DRG explant cultures” value was “no Schwann cells were observed along the axons”. For the same substance, the “sheath formation around the axons” value in test [4] (after a few days) is “do not form a sheath”. Besides, the “binding of the Schwann cells along the axons” value in test [4] (within 5 hours) was “bind much less”.
